Measurements as given in US20080026996A1, “Selective Vpac2 Receptor Reptide Agonists” (ELI LILLY AND COMPANY, priority 2004, published 2008).
Where a SMILES comes first, the peptide text is derived from it. Where no end group is shown, it is not given here. [ ]: non-standard residue; d: D form. The star is where a group is joined. Hexanoyl = CCCCCC(=O)*; Aib = CC(C)(N)C(=O)O; Mpa = O=C(O)CCS

What was measured:
[1] = molecular target: T1, human VPAC2 (Homo sapiens, UniProt P41587); experiment: Alpha screen cAMP in vitro potency, human VPAC2 receptor; format: cell-based; conditions: cAMP generation; single result from two analyses performed in a single run; read-out: Human VPAC2 Receptor: Alpha Screen EC50
T1 construct: expressed in transfected cells
T1 sequence (P41587 24-438): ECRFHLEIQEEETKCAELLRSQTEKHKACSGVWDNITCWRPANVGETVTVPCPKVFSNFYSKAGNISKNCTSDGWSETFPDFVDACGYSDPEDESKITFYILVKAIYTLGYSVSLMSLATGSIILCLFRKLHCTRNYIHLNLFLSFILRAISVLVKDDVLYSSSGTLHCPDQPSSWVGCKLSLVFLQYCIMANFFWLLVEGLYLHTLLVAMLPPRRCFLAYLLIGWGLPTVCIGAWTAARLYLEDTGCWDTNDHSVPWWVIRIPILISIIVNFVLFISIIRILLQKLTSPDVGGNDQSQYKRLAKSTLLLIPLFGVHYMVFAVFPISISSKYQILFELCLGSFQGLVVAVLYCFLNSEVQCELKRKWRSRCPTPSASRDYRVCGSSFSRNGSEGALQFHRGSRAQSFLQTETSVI
Method in brief: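 This followed a 60 min stimulation of 50,000 enzyme-free-dissociated cells per point with acceptor beads in stimulation buffer.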

[2] = Rat serum stability studies (remaining active peptide by DiscoveRx cAMP on CHO-VPAC2 cells); format: in vitro ADME
Procedure: Store the aliquot with aprotinin at 4° C. Store the aliquot without aprotinin at 37° C. […] […] Incubate in room temperature for 30 minutes. Remove the supernatant. […] Incubate on the shaker (300 rpm) for 1 hour. Proceed as normal with the DiscoveRx kit. Include cAMP standards in column 12. Determine EC50 values from the cAMP assay data.

[3] = molecular target: T1, human VPAC2; experiment: Filter binding assay, membranes of stable VPAC2 cell line, 125I-labeled VIP tracer (Table 2); conditions: read-out: Human VPAC2 Receptor Binding
Method in brief: (§1)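 Competition binding of agonists against radiotracer on receptor membranes (2.5 μg) in 25 mM HEPES pH 7.4 with 0.5% protease-free BSA, about 40000 cpm tracer, 1 hour with shaking. Bound tracer was separated by filtration on PEI-presoaked, BSA-blocked glass-fibre filters, washed and counted by scintillation.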

[4] = molecular target: T2, human VPAC1 (Homo sapiens, UniProt P32241); experiment: Filter binding assay, membranes of cells transiently transfected with human VPAC1, 125I-labeled VIP tracer (Table 2); design: expressed in transfected cells; conditions: read-out: Human VPAC1 Receptor Binding
T2 sequence (P32241 31-457): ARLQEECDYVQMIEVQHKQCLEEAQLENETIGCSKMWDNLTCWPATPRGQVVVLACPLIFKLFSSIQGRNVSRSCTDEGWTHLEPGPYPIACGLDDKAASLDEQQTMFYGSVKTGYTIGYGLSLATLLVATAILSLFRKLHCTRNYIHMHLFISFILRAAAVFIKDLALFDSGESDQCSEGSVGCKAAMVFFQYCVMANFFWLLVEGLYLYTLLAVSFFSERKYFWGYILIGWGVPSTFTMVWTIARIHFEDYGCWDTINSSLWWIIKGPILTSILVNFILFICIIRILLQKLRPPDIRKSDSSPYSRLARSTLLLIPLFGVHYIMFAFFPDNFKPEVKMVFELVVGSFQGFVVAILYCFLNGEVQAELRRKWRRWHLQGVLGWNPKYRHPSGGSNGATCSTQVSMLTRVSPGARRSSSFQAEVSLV
Method in brief: as §1

[5] = molecular target: T3, human PAC1 (Homo sapiens, UniProt P41586); experiment: Filter binding assay, membranes of cells transiently transfected with human PAC1, 125I-labeled PACAP-27 tracer (Table 2); design: expressed in transfected cells; conditions: read-out: Human PAC1 Receptor Binding
T3 sequence (P41586 21-468): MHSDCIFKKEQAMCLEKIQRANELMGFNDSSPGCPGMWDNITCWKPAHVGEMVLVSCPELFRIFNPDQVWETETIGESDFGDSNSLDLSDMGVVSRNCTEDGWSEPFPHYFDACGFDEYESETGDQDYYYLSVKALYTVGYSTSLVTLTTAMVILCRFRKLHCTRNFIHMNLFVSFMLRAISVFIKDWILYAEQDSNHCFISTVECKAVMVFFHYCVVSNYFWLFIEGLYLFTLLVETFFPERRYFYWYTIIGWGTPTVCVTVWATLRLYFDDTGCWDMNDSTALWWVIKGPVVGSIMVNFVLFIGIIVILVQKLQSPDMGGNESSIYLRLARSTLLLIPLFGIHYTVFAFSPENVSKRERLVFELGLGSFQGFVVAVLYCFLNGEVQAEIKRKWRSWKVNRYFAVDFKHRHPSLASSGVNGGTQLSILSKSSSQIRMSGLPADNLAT
Method in brief: as §1

Compound	EC50 [1] [nM]	Rat Serum Stability (estimated purity in % after 18 hours) [2] [%]	IC50 [3] [nM]	IC50 [4] [nM]	IC50 [5] [nM]
[Mpa]HSDAVFTDNYTRLLAKLALQKYLQSIKNKRYGGPSSGAPPPS [Agonist P205]	1.14	35.02	–	–	–
CCCCCC(=O)N[C@@H](Cc1c[nH]cn1)C(=O)N[C@@H](CO)C(=O)N[C@@H](CC(=O)O)C(=O)N[C@@H](C)C(=O)N[C@H](C(=O)N[C@@H](Cc1ccccc1)C(=O)N[C@H](C(=O)N[C@@H](CC(=O)O)C(=O)N[C@@H](CC(N)=O)C(=O)N[C@@H](Cc1ccc(O)cc1)C(=O)N[C@H](C(=O)N[C@@H](C)C(=O)N[C@@H](CC(C)C)C(=O)N[C@@H](CCCNC(=N)N)C(=O)NC(C)(C)C(=O)N[C@@H](CCC(N)=O)C(=O)N[C@H](C(=O)N[C@@H](C)C(=O)N[C@@H](C)C(=O)NC(C)(C)C(=O)N[C@@H](CCCCN)C(=O)N[C@@H](Cc1ccc(O)cc1)C(=O)N[C@@H](CC(C)C)C(=O)N[C@@H](CCC(N)=O)C(=O)N[C@@H](CO)C(=O)N[C@H](C(=O)N[C@@H](CCCN)C(=O)N[C@@H](CC(N)=O)C(=O)N[C@@H](CCCN)C(=O)NCC(=O)NCC(=O)N1CCC[C@H]1C(=O)N[C@@H](CO)C(=O)N[C@@H](CO)C(=O)NCC(=O)N[C@@H](C)C(=O)N1CCC[C@H]1C(=O)N1CCC[C@H]1C(=O)N1CCC[C@H]1C(=O)N[C@@H](CO)C(=O)O)[C@@H](C)CC)C(C)C)[C@@H](C)O)[C@@H](C)O)C(C)C [Agonist P366]	2.6	92.00	–	–	–
Hexanoyl-HSDIVFTDNYTRLRKQVAAKKYLQSIKNKRYGGPSSGAPPPS [Agonist P221]	–	0.87	–	–	–
Hexanoyl-HSDA[dV]FTDNYTRLRKQVAAKKYLQSIKNKRYGGPSSGAPPPS [Agonist P210]	–	<0.91	0.68	395	–
Hexanoyl-HSDAVFTDNYTRLRKQVAAKKALQSIKNKRYGGPSSGAPPPS [Agonist P229]	2.6	<5.00	–	–	–
CCCCCC(=O)N[C@@H](Cc1c[nH]cn1)C(=O)N[C@@H](CO)C(=O)N[C@@H](CC(=O)O)C(=O)N[C@@H](C)C(=O)N[C@H](C(=O)N[C@@H](Cc1ccccc1)C(=O)N[C@H](C(=O)N[C@@H](CC(=O)O)C(=O)N[C@@H](CC(N)=O)C(=O)N[C@@H](Cc1ccc(O)cc1)C(=O)N[C@H](C(=O)N[C@@H](CCCNC(=N)N)C(=O)N[C@@H](CC(C)C)C(=O)N[C@@H](CCCNC(=N)N)C(=O)NC(C)(C)C(=O)N[C@@H](CCC(N)=O)C(=O)N[C@H](C(=O)N[C@@H](C)C(=O)N[C@@H](C)C(=O)NC(C)(C)C(=O)N[C@@H](CCCCN)C(=O)N[C@@H](Cc1ccc(O)cc1)C(=O)N[C@@H](CC(C)C)C(=O)N[C@@H](CCC(N)=O)C(=O)N[C@@H](CO)C(=O)N[C@H](C(=O)N[C@@H](CCCCN)C(=O)N1CCC[C@H]1C(=O)N[C@@H](CCCCN)C(=O)NCC(=O)NCC(=O)N1CCC[C@H]1C(=O)N[C@@H](CO)C(=O)N[C@@H](CO)C(=O)NCC(=O)N[C@@H](C)C(=O)N1CCC[C@H]1C(=O)N1CCC[C@H]1C(=O)N1CCC[C@H]1C(=O)N[C@@H](CO)C(=O)O)[C@@H](C)CC)C(C)C)[C@@H](C)O)[C@@H](C)O)C(C)C [Agonist P350] (Hexanoyl-HSDAVFTDNYTRLR[Aib]QVAA[Aib]KYLQSIKPKGGPSSGAPPPS-OH; C-terminus assumed)	0.13	25.83	–	–	–
Hexanoyl-HSDAVFTDNYTRL[Aib]KQVAAKQYLQSIKNKRYGGPSSGAPPPS [Agonist P249]	–	12.9	–	–	–
Hexanoyl-HSDAVFTDNYTRLRKQVAAKK[Aib]LQSIKNKRYGGPSSGAPPPS [Agonist P228]	–	<5.00	–	–	–
Hexanoyl-HSDAVFTDNYT[Aib]LR[Aib]QVAA[Aib]KYLQSIKNKRYGGPSSGAPPPS [Agonist P345]	–	20.23	19.3	> 3000	–
CCCCCC(=O)N[C@@H](Cc1c[nH]cn1)C(=O)N[C@@H](CO)C(=O)N[C@@H](CC(=O)O)C(=O)N[C@@H](C)C(=O)N[C@H](C(=O)N[C@@H](Cc1ccccc1)C(=O)N[C@H](C(=O)N[C@@H](CC(=O)O)C(=O)N[C@@H](CC(N)=O)C(=O)N[C@@H](Cc1ccc(O)cc1)C(=O)N[C@H](C(=O)N[C@@H](CCCNC(=N)N)C(=O)N[C@@H](CC(C)C)C(=O)N[C@@H](CCCNC(=N)N)C(=O)NC(C)(C)C(=O)N[C@@H](CCC(N)=O)C(=O)N[C@H](C(=O)N[C@@H](C)C(=O)N[C@@H](C)C(=O)NC(C)(C)C(=O)N[C@@H](CCCCN)C(=O)N[C@@H](Cc1ccc(O)cc1)C(=O)N[C@@H](CC(C)C)C(=O)N[C@@H](CCC(N)=O)C(=O)N[C@@H](CO)C(=O)N[C@H](C(=O)N[C@@H](CCCN)C(=O)N[C@@H](CCC(N)=O)C(=O)N[C@@H](CCCN)C(=O)NCC(=O)NCC(=O)N1CCC[C@H]1C(=O)N[C@@H](CO)C(=O)N[C@@H](CO)C(=O)NCC(=O)N[C@@H](C)C(=O)N1CCC[C@H]1C(=O)N1CCC[C@H]1C(=O)N1CCC[C@H]1C(=O)N[C@@H](CO)C(=O)O)[C@@H](C)CC)C(C)C)[C@@H](C)O)[C@@H](C)O)C(C)C [Agonist P356]	–	45.17	–	–	–
Hexanoyl-HSDAVFTDNYTRLRKQVAAKKYLQLIKNKRYGGPSSGAPPPS [Agonist P114]	0.14	–	0.56	171	188
CCCCCC(=O)N[C@@H](Cc1c[nH]cn1)C(=O)N[C@@H](CO)C(=O)N[C@@H](CC(=O)O)C(=O)N[C@@H](C)C(=O)N[C@H](C(=O)N[C@@H](Cc1ccccc1)C(=O)N[C@H](C(=O)N[C@@H](CC(=O)O)C(=O)N[C@@H](CC(N)=O)C(=O)N[C@@H](Cc1ccc(O)cc1)C(=O)N[C@H](C(=O)N[C@@H](CCCNC(=N)N)C(=O)N[C@@H](CC(C)C)C(=O)N[C@@H](CCCNC(=N)N)C(=O)N[C@@H](CCCCN)C(=O)N[C@@H](CCC(N)=O)C(=O)N[C@H](C(=O)N[C@@H](C)C(=O)N[C@@H](C)C(=O)N[C@@H](CCCCN)C(=O)N[C@@H](CCCCN)C(=O)N[C@@H](Cc1ccc(O)cc1)C(=O)N[C@@H](CC(C)C)C(=O)N[C@@H](CCC(N)=O)C(=O)N[C@@H](CO)C(=O)N[C@H](C(=O)N[C@@H](CCCCN)C(=O)N[C@@H](CC(N)=O)C(=O)NCC(=O)N[C@@H](CCCNC(=N)N)C(=O)N1CCC[C@H]1C(=O)N[C@@H](CO)C(=O)N[C@@H](CO)C(=O)NCC(=O)N[C@@H](C)C(=O)N1CCC[C@H]1C(=O)N1CCC[C@H]1C(=O)N1CCC[C@H]1C(=O)N[C@@H](CO)C(=O)O)[C@@H](C)CC)C(C)C)[C@@H](C)O)[C@@H](C)O)C(C)C [Agonist P271] (Hexanoyl-HSDAVFTDNYTRLRKQVAAKKYLQSIKNGRPSSGAPPPS-OH; C-terminus assumed)	0.12	–	0.14	67.6	352
Hexanoyl-HSDLVFTDNYTRLRKQVAAKKYLQSIKNKRYGGPSSGAPPPS [Agonist P223]	–	1.52	–	–	–
